{"source": "ChEMBL document CHEMBL1133292", "about": "“Some selective reactions of moenomycin A” (Bioorg Med Chem Lett, 2000)", "key": {"[1]": {"experiment": "Compound was coli; call rule not given here", "design": "species or system Escherichia coli"}, "[2]": {"experiment": "Compound was coli; Inactive", "design": "species or system Escherichia coli"}}, "data": [{"smiles": "CCCCCCCCCCCCCCNCCO[C@H](COP(=O)(O)O[C@H]1O[C@@H](C(N)=O)[C@@](C)(O)[C@H](OC(N)=O)[C@@H]1O[C@@H]1O[C@@H](CO[C@@H]2O[C@@H](CO)[C@@H](O)[C@H](O)[C@@H]2O)[C@@H](O[C@@H]2O[C@@H](C)[C@@H](O[C@@H]3O[C@@H](C(N)=O)[C@H](O)[C@H](O)[C@@H]3O)[C@H](O)[C@@H]2NC(C)=O)[C@H](O)[C@@H]1NC(C)=O)C(=O)O", "values": [{"measurement": "IC50", "setting": "[1]", "value": 247, "unit": "nM l-1"}]}, {"smiles": "CC(=O)N[C@@H]1[C@H](O[C@H]2[C@H](O)[C@H](NC(C)=O)[C@H](O[C@@H]3[C@@H](OP(=O)(O)OC[C@@H](OCCN(C4CCCCC4)C4CCCCC4)C(=O)O)O[C@@H](C(N)=O)[C@@](C)(O)[C@@H]3OC(N)=O)O[C@H]2CO[C@@H]2O[C@@H](CO)[C@@H](O)[C@H](O)[C@@H]2O)O[C@@H](C)[C@@H](O[C@@H]2O[C@@H](C(N)=O)[C@H](O)[C@H](O)[C@@H]2O)[C@@H]1O", "values": [{"measurement": "IC50", "setting": "[2]", "value": "Not Active"}]}, {"smiles": "C=C(C/C=C(\\C)CCC=C(C)C)CCC(C)(C)/C=C/CC/C(C)=C/CO[C@@H](COP(=O)(O)O[C@H]1O[C@H](C(N)=O)[C@@](C)(O)[C@H](OC(N)=O)[C@H]1O[C@@H]1O[C@H](CO[C@@H]2O[C@H](CO)[C@@H](O)[C@H](O)[C@H]2O)[C@@H](O[C@@H]2O[C@H](C)[C@@H](O[C@@H]3O[C@H](C(=O)NC4=C(O)CCC4=O)[C@H](O)[C@H](O)[C@H]3O)[C@H](O)[C@H]2NC(C)=O)[C@H](O)[C@H]1NC(C)=O)C(=O)O", "note": "[MOENOMYCIN A]", "values": [{"measurement": "IC50", "setting": "[1]", "value": 1.5, "unit": "nM l-1"}]}, {"smiles": "C=CC(C)(CC/C=C(\\C)CCC=C(C)C)C(O)CO[C@H](COP(=O)(O)O[C@H]1O[C@@H](C(N)=O)[C@@](C)(O)[C@H](OC(N)=O)[C@@H]1O[C@@H]1O[C@@H](CO[C@@H]2O[C@@H](CO)[C@@H](O)[C@H](O)[C@@H]2O)[C@@H](O[C@@H]2O[C@@H](C)[C@@H](O[C@@H]3O[C@@H](C(N)=O)[C@H](O)[C@H](O)[C@@H]3O)[C@H](O)[C@@H]2NC(C)=O)[C@H](O)[C@@H]1NC(C)=O)C(=O)O", "note": "(stereo not given in full)", "values": [{"measurement": "IC50", "setting": "[1]", "value": 106, "unit": "nM l-1"}]}, {"smiles": "CCCCCCCCc1ccc(NCCO[C@H](COP(=O)(O)O[C@H]2O[C@@H](C(N)=O)[C@@](C)(O)[C@H](OC(N)=O)[C@@H]2O[C@@H]2O[C@@H](CO[C@@H]3O[C@@H](CO)[C@@H](O)[C@H](O)[C@@H]3O)[C@@H](O[C@@H]3O[C@@H](C)[C@@H](O[C@@H]4O[C@@H](C(N)=O)[C@H](O)[C@H](O)[C@@H]4O)[C@H](O)[C@@H]3NC(C)=O)[C@H](O)[C@@H]2NC(C)=O)C(=O)O)cc1", "values": [{"measurement": "IC50", "setting": "[1]", "value": 31, "unit": "nM l-1"}]}]}
